Values joined by “and” are separate entries in the source; they are usually repeats but may differ in a detail not shown here. Equal entries are not always repeated. Toxic doses and inconclusive results are not listed. Rule as the data show it: active = T/C of 150% or more; inactive = T/C below 125%.
Test system: L1210 leukemia ip in BDF1 mice, survival T/C
Test: NCI In Vivo Anticancer Drug Screen. Data for tumor model L1210 Leukemia (intraperitoneal) in B6D2F1 (BDF1) mice
Settings: endpoint: mean survival time, higher = longer survival
Outline: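 Read-out is survival time, reported as the treated-group measurement over the vehicle-control measurement.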

[1] = dose: 100.0 mg/kg/injection, schedule: Q01DX001 (ip), vehicle: carboxymethylcellulose (CMC)
[2] = dose: 200.0 mg/kg/injection, schedule: Q01DX001 (ip), vehicle: carboxymethylcellulose (CMC)
[3] = dose: 400.0 mg/kg/injection, schedule: Q01DX001 (ip), vehicle: carboxymethylcellulose (CMC)
[4] = dose: 100.0 mg/kg/injection, schedule: Q04DX003 (ip), vehicle: saline with Tween-80
[5] = dose: 200.0 mg/kg/injection, schedule: Q04DX003 (ip), vehicle: saline with Tween-80
[6] = dose: 400.0 mg/kg/injection, schedule: Q04DX003 (ip), vehicle: saline with Tween-80
[7] = dose: 100.0 mg/kg/injection, schedule: Q01DX009 (ip), vehicle: Klucel (hydroxypropylcellulose) (HPC)
[8] = dose: 100.0 mg/kg/injection, schedule: Q04DX003 (ip), vehicle: Klucel (hydroxypropylcellulose) (HPC)
[9] = dose: 200.0 mg/kg/injection, schedule: Q01DX009 (ip), vehicle: Klucel (hydroxypropylcellulose) (HPC)
[10] = dose: 200.0 mg/kg/injection, schedule: Q04DX003 (ip), vehicle: Klucel (hydroxypropylcellulose) (HPC)
[11] = dose: 100.0 mg/kg/injection, schedule: Q01DX001 (ip), vehicle: Klucel (hydroxypropylcellulose) (HPC)
[12] = dose: 200.0 mg/kg/injection, schedule: Q01DX001 (ip), vehicle: Klucel (hydroxypropylcellulose) (HPC)
[13] = dose: 100.0 mg/kg/injection, schedule: Q04DX002 (ip), vehicle: saline with Tween-80
[14] = dose: 400.0 mg/kg/injection, schedule: Q04DX003 (ip), vehicle: Klucel (hydroxypropylcellulose) (HPC)

Measured: T/C

C[PH+](c1ccccc1)c1ccccc1.C[PH+](c1ccccc1)c1ccccc1.[Cl][Pd][Cl]
inactive: dose: 75.0 mg/kg/injection, schedule: Q04DX003 (ip), vehicle: saline 112 % of control | dose: 150.0 mg/kg/injection, schedule: Q04DX003 (ip), vehicle: saline 107 % of control | dose: 300.0 mg/kg/injection, schedule: Q04DX003 (ip), vehicle: saline 104 % of control

O=[N+]([O-])c1c[nH]c2ncnc(SCc3ccccc3)c12
inactive: [1] 87 % of control | [2] 93 % of control | [3] 91 % of control

COc1cc2cc3c4cc(OC)c(OC)cc4cc[n+]3c(/C=C\c3ccccc3O)c2cc1OC
inactive: dose: 50.0 mg/kg/injection, schedule: Q01DX001 (ip), vehicle: carboxymethylcellulose (CMC) 106 % of control | [1] 114 % of control | dose: 100.0 mg/kg/injection, schedule: Q04DX002 (ip), vehicle: carboxymethylcellulose (CMC) 100 % of control and 104 % of control | dose: 100.0 mg/kg/injection, schedule: Q04DX003 (ip), vehicle: carboxymethylcellulose (CMC) 109 % of control and 118 % of control | [2] 119 % of control | dose: 200.0 mg/kg/injection, schedule: Q04DX002 (ip), vehicle: carboxymethylcellulose (CMC) 100 % of control and 103 % of control | dose: 200.0 mg/kg/injection, schedule: Q04DX003 (ip), vehicle: carboxymethylcellulose (CMC) 110 % of control and 123 % of control | [3] 116 % of control | dose: 400.0 mg/kg/injection, schedule: Q04DX002 (ip), vehicle: carboxymethylcellulose (CMC) 97 % of control and 104 % of control | dose: 400.0 mg/kg/injection, schedule: Q04DX003 (ip), vehicle: carboxymethylcellulose (CMC) 110 % of control and 115 % of control

O=C(COc1ccc([N+](=O)[O-])cc1)Nc1cccnc1
inactive: [4] 96 % of control | [5] 95 % of control | [6] 96 % of control

COc1cc(Nc2nc(N)ncc2[N+](=O)[O-])cc(OC)c1OC
inactive: [4] 92 % of control | [5] 87 % of control | [6] 88 % of control

COc1ccc(/C(=N/Nc2ccccc2)C(C)C(O)(C(F)(F)F)C(F)(F)F)cc1 (stereo unspecified)
inactive: dose: 50.0 mg/kg/injection, schedule: Q01DX009 (ip), vehicle: Klucel (hydroxypropylcellulose) (HPC) 91 % of control | [7] 92 % of control | [8] 98 % of control | [9] 89 % of control | [10] 90 % of control

CCN(CC)CCNc1ccc([N+](=O)[O-])cc1[N+](=O)[O-]
inactive: dose: 50.0 mg/kg/injection, schedule: Q01DX009 (ip), vehicle: saline with Tween-80 88 % of control | [11] 103 % of control | dose: 100.0 mg/kg/injection, schedule: Q01DX009 (ip), vehicle: saline with Tween-80 102 % of control | [12] 103 % of control

O=C(O)/C=C/c1cnc[nH]1
inactive: dose: 100.0 mg/kg/injection, schedule: Q04DX002 (ip), vehicle: saline 93 % of control | dose: 200.0 mg/kg/injection, schedule: Q04DX002 (ip), vehicle: saline 104 % of control | dose: 400.0 mg/kg/injection, schedule: Q04DX002 (ip), vehicle: saline 108 % of control

Cc1cc(C)c(CCN(C)C)c(C)c1C
inactive: dose: 50.0 mg/kg/injection, schedule: Q01DX001 (ip), vehicle: saline 103 % of control | dose: 100.0 mg/kg/injection, schedule: Q01DX001 (ip), vehicle: saline 101 % of control | dose: 200.0 mg/kg/injection, schedule: Q01DX001 (ip), vehicle: saline 101 % of control

CC/C=C\CCCCCCO
inactive: [1] 97 % of control and 94 % of control | [2] 94 % of control | [3] 89 % of control and 97 % of control

O=C(O)C(F)(F)C(F)(F)C(F)(F)F.O=C(O)C(F)(F)C(F)(F)C(F)(F)F.O=C(O)C(F)(F)C(F)(F)C(F)(F)F.O=C(O)C(F)(F)C(F)(F)C(F)(F)F.[Rh].[Rh]
inactive: dose: 25.0 mg/kg/injection, schedule: Q04DX002 (ip), vehicle: saline with Tween-80 94 % of control | dose: 50.0 mg/kg/injection, schedule: Q04DX002 (ip), vehicle: saline with Tween-80 102 % of control | [13] 105 % of control

O=C(O)c1ccc[cH-]1.O=C(O)c1ccc[cH-]1.[Fe+2]
inactive: dose: 100.0 mg/kg/injection, schedule: Q04DX002 (ip), vehicle: Klucel (hydroxypropylcellulose) (HPC) 110 % of control | dose: 200.0 mg/kg/injection, schedule: Q04DX002 (ip), vehicle: Klucel (hydroxypropylcellulose) (HPC) 100 % of control | dose: 400.0 mg/kg/injection, schedule: Q04DX002 (ip), vehicle: Klucel (hydroxypropylcellulose) (HPC) 103 % of control

CN1CCN(C(=O)C2C(c3ccccc3)C2c2cccc(C(F)(F)F)c2)CC1 (stereo unspecified)
inactive: [13] 103 % of control | dose: 200.0 mg/kg/injection, schedule: Q04DX002 (ip), vehicle: saline with Tween-80 98 % of control | dose: 400.0 mg/kg/injection, schedule: Q04DX002 (ip), vehicle: saline with Tween-80 92 % of control

OC1(C2(O)CCCCC2)CCCCC1
inactive: dose: 100.0 mg/kg/injection, schedule: Q04DX002 (ip), vehicle: gum acacia 101 % of control | dose: 200.0 mg/kg/injection, schedule: Q04DX002 (ip), vehicle: gum acacia 104 % of control | dose: 400.0 mg/kg/injection, schedule: Q04DX002 (ip), vehicle: gum acacia 96 % of control

COc1nccc(SC)n1
inactive: dose: 95.0 mg/kg/injection, schedule: Q04DX003 (ip), vehicle: Klucel (hydroxypropylcellulose) (HPC) 110 % of control | [8] 107 % of control and 91 % of control | dose: 135.0 mg/kg/injection, schedule: Q04DX003 (ip), vehicle: Klucel (hydroxypropylcellulose) (HPC) 105 % of control | [10] 96 % of control and 97 % of control

CCOC(=O)N(O)c1ccc(/C=C/c2ccccc2)cc1
inactive: [1] 98 % of control | [2] 93 % of control | [3] 98 % of control

COC(=O)Nc1ccc(C(C)=O)cc1
inactive: dose: 20.0 mg/kg/injection, schedule: Q01DX009 (ip), vehicle: saline with Tween-80 95 % of control | dose: 40.0 mg/kg/injection, schedule: Q01DX009 (ip), vehicle: saline with Tween-80 91 % of control | dose: 80.0 mg/kg/injection, schedule: Q01DX009 (ip), vehicle: saline with Tween-80 93 % of control | dose: 160.0 mg/kg/injection, schedule: Q01DX009 (ip), vehicle: saline with Tween-80 101 % of control | dose: 320.0 mg/kg/injection, schedule: Q01DX009 (ip), vehicle: saline with Tween-80 90 % of control

COc1cccc(CCNC(=O)CCC#N)c1
inactive: dose: 75.0 mg/kg/injection, schedule: Q01DX009 (ip), vehicle: saline 112 % of control | [8] 97 % of control | dose: 150.0 mg/kg/injection, schedule: Q01DX009 (ip), vehicle: saline 93 % of control | [10] 87 % of control | dose: 300.0 mg/kg/injection, schedule: Q01DX009 (ip), vehicle: saline 100 % of control | [14] 90 % of control

O=C(O)c1cccc([N+](=O)[O-])c1C(=O)c1ccccc1
inactive: [4] 95 % of control | [5] 97 % of control | [6] 93 % of control

CCCCCCCCCCCc1cc(=O)n(-c2cc(Cl)ccc2Cl)n1C
inactive: [4] 98 % of control

C=C1N(c2ccc(OC)c(OC)c2)C(=O)OC12CCCCC2
inactive: dose: 25.0 mg/kg/injection, schedule: Q04DX003 (ip), vehicle: Klucel (hydroxypropylcellulose) (HPC) 93 % of control | dose: 50.0 mg/kg/injection, schedule: Q04DX003 (ip), vehicle: Klucel (hydroxypropylcellulose) (HPC) 93 % of control | [8] 102 % of control | [10] 96 % of control

COc1nccc2ccccc12
inactive: [4] 94 % of control | [5] 92 % of control

O=C(c1ccccc1)N1CC1(c1ccccc1)C1(c2ccccc2)SCCCS1 (stereo unspecified)
inactive: [11] 95 % of control | [12] 98 % of control | dose: 400.0 mg/kg/injection, schedule: Q01DX001 (ip), vehicle: Klucel (hydroxypropylcellulose) (HPC) 92 % of control

C[Si](C)(C)N1N=NC2C(=O)N(c3ccccc3)C(=O)C21 (stereo unspecified)
inactive: [7] 105 % of control | [8] 92 % of control | [9] 110 % of control | [10] 102 % of control | dose: 400.0 mg/kg/injection, schedule: Q01DX009 (ip), vehicle: Klucel (hydroxypropylcellulose) (HPC) 112 % of control | [14] 103 % of control

CCCCN(C)N=Nc1ccccc1C(=O)OC
inactive: [1] 107 % of control | [2] 117 % of control

Source: PubChem BioAssay AID248 (DTP/NCI, 2004)
